What was measured:
vagal sensory neurons [1] = experiment: pERK immunofluorescence of vagal ganglia after microgavage; type: in vivo, zebrafish
Description: To quantify vagal activity by pERK staining, published protocol with slight modification (Randlett et al., 2015) was used. Zebrafish larvae were quickly collected by funneling through a 0.75 mm cell strainer and dropped into a 5 mL petri dish containing ice cold fix buffer (2.5% formalin+0.25% Triton 100). Larvae were fixed overnight at 4° C., then washed 3 times in PT (PBS+0.3% Triton 100), treated with 150 mM Tris-HCl (PH=9) for 15 mins at 70° C., washed with PT and digested with 0.05% trypsin-EDTA on ice for 45 mins. Following digestion, samples were then washed with PT and transferred into block solution [PT+1% bovine serum albumin (BSA, Fisher)+2% normal goat serum (NGS, Sigma)+1% dimethyl sulfoxide (DMSO)]. The primary antibodies [pERK (Cell signaling); tERK (Cell signaling); GFP (Aves Lab)] were diluted in block solution (1:150 for pERK; 1:150 for tERK and 1:500 for GFP) and samples were incubated in 100 μl of primary antibody overnight at 4° C. Following primary antibody incubation, samples were then washed with PT and incubated with secondary antibody overnight at 4° C. Samples were then washed with PBS, mounted in 1% LMA and imaged using a Zeiss 780 upright confocal microscope.
For delivering bacterial or chemicals specifically to the intestine, the established microgavage technique (Cocchiaro and Rawls, 2013) was adopted. […]

vagal sensory neurons [2] = experiment: In vivo calcium imaging of vagal sensory ganglia after microgavage; set-up: species or system zebrafish; conditions: WT; enteric microgavage ~8 nl, AITC 100 mM, indole 1 mM, IAld 1 mM
Description: For delivering bacterial or chemicals specifically to the intestine, the established microgavage technique (Cocchiaro and Rawls, 2013) was adopted. Zebrafish were anesthetized with 1 mg/mL α-Bungarotoxin (α-BTX) and the gavage procedure was performed as previously described using microinjection station (Cocchiaro and Rawls, 2013). For bacteria gavage experiments, 1 ml of overnight bacterial culture was harvested, pelleted, washed with PBS and resuspended in 100 ul PBS.˜8 nl was then delivered into the zebrafish intestine using microgavage. The gavaged zebrafish was then transferred into egg water and mounted in 1% LMA for imaging. For chemical gavage experiments, ˜8 nl of AITC (100 mM), indole (1 mM) and IAld (1 mM) was gavaged into the intestine.
Tg(neurod1:Gcamp6f); Tg(neurod1:TagRFP) zebrafish were used to record vagal sensory ganglia calcium activity in vivo. Zebrafish were anesthetized with 1 mg/mL α-Bungarotoxin (α-BTX) and gavaged with chemical compounds or bacteria as described (Naumann et al., 2016). Zebrafish larvae were mounted in 1% LMA and imaged under a Zeiss 780 upright confocal microscope. Z-stack images of the entire vagal ganglia were collected as serial images at 10 mins/frame and processed in FIJI. Individual vagal sensory neurons were identified and the Gcamp6f to TagRFP fluorescence ratios of individual vagal sensory neurons were calculated.

zebrafish EECs (Trpa1) = experiment: In vivo EEC calcium, Tg(neurod1:Gcamp6f) zebrafish; conditions: trpa1b-dependent
Description: To record in vivo EEC activity using the Tg(neurod1:Gcamp6f) system, a published protocol with slight modification (Ye et al., 2019) was used. In brief, unanesthetized zebrafish larvae were gently mounted in 3% methylcellulose. Excess water was removed and zebrafish larvae were gently positioned with right side up. Zebrafish were then moved onto an upright Leica M205 FA fluorescence stereomicroscope equipped with a Leica DFC 365FX camera. The zebrafish larvae were allowed to recover for 2 mins before 100 μL of test agent was pipetted directly in front of the mouth region. Images were then recorded every 10 seconds. The data shown in FIG. 2O-R, depicting the EEC responses to E. tarda stimulation, were obtained by mounting unanesthetized zebrafish larvae in 1% low melting agarose. A window (5×5 mm) was cut to expose the head region of the zebrafish. 10 μL of E. tarda culture [˜10^9 Colony Forming Unit (CFU)] were delivered at the zebrafish mouth area. Images were recorded every 10 secs for 20 mins. Image processing and analysis were performed using FIJI software. Time-lapse fluorescence images were first aligned to correct for experimental drift using the plugin “align slices in stack.” Normalized correlation coefficient matching and bilinear interpolation methods for subpixel translation were used for aligning slices (Tseng et al., 2012). The plugin “rolling ball background subtraction” with the rolling ball radius=10 pixels was used to remove the large spatial variation of background intensities. The Gcamp6f fluorescence intensity in the intestinal region was then calculated for each time point. The ratio of maximum fluorescence (Fmax) and the initial fluorescence (F0) was used to measure EEC calcium responses.
For EEC Trpa1 activation using the Optovin platform, zebrafish larvae were treated with 10 μM Optovin overnight. Following Optovin treatment, unanesthetized zebrafish were mounted in 1% LMA and imaged under a 780 upright Zeiss confocal microscope using 20× water objective lenses. For all the experiments, the mid-intestine region was imaged (FIG. 10D). The intestinal epithelium was selected as the region of interest (ROI) (FIG. 10A). Serial images were obtained at 1 s/frame. A 405 nm pulse of light was applied to the ROI at 1 pulse/10 s. For some experiments (FIG. 7D-F, FIG. 10B-G), the images were obtained at 10 s/frame. When measuring Optovin effects on intestinal motility in ret−/−, sox10−/− or tph1b−/− zebrafish larvae, embryos were collected from heterozygous zebrafish. ret−/− zebrafish were identified by lack of ENS and deflated swim bladder (Knight et al., 2011), sox10−/− zebrafish were identified by lack of pigment (Rolig et al., 2017), and tph1b−/− zebrafish were identified by PCR-based genotyping (Tornini et al., 2017).
To determine whether Optovin-UV or ChR2 was sufficient to activate EECs, Tg(neurod1:Gcamp6f) zebrafish were used. […] The Gcamp6f signal was recorded with 488 nm laser intensity less than 0.5. The zebrafish intestinal motility is quantified through recorded image series of zebrafish intestine using the method similar as previously described (Ganz et al., 2018). […] When calculating the mean velocity, only the mean velocity magnitude was calculated, which therefore doesn't account for the movement direction. The MTrackJ FIJI plugin was used to quantify the mean velocity magnitude (Meijering et al., 2012).

mouse duodenum = experiment: Amperometric measurement of 5-HT secretion, mouse small intestine; conditions: 50 μM HC030031
Excerpt: (§1) These experiments using C57BL/6J mice were approved by the Flinders University Animal Welfare Committee (number 965-19) and human ileum tissue was collected from resected small and large intestine from patients that gave written informed consent under the approval of the Southern Adelaide Clinical Human Research Ethics Committee (number 50.07) as previous (Sun et al., 2019a). Mice were euthanized at 8 to 12 weeks by isoflurane overdose followed by cervical dislocation. The duodenum was removed and placed in Krebs solution oxygenated with 95% O2, 5% CO2. A midline incision was made along the duodenum to create a flat sheet, the section was pinned with the mucosal side up in an organ bath lined with Sylgard and containing oxygenated Krebs solution. Serotonin release was measured using amperometry. A carbon-fibre electrode (5-μm diameter, ProCFE; Dagan Corporation, Minneapolis, Minn.), was lowered above the mucosa and 400 mV potential was applied to the electrode causing oxidation of serotonin (Zelkas et al., 2015). […] The change in amplitude due to serotonin oxidation was recorded using an EPC-10 amplifier and Pulse software (HEKA Electronic, Lambrecht/Pfalz, Germany), and samples at 10 kHz and low-pass filtered at 1 kHz. Data was assessed as peak current during each treatment. Data was analyzed comparing all groups using one-way ANOVA with Tukey's post-hoc test. […]

zebrafish EECs = experiment: In vivo EEC activity, Tg(neurod1:CaMPARI) zebrafish
Excerpt: CaMPARI undergoes permanent green-to-red photoconversion (PC) under 405 nm light when calcium is present. This permanent conversion records the calcium activity for all areas illuminated by PC-light. Red fluorescence intensity correlates with calcium activity during photoconversion (Fosque et al., 2015). In the Tg(neurod1:CaMPARI) zebrafish line, the CaMPARI (calcium-modulated photoactivatable ratiometric integrator) transgene is expressed under control of the −5 kb promoter cloned from the zebrafish neurod1 locus. CaMPARI mRNA is transcribed and the CaMPARI protein is expressed in cells that are able to activate the neurod1 promoter. There are multiple cell types in the zebrafish body that are sufficient to activate the neurod1 promoter, including all EECs in the intestine (Ye et al., 2019). CaMPARI protein is a calcium indicator protein that binds calcium and converts from green fluorescence to red fluorescence in the presence of UV light. This protein is engineered and described in detail in a previous publication (Fosque et al., 2015). This transgenic model was used to measure the level of intracellular calcium in EECs. […]

human ileum = experiment: Amperometric measurement of 5-HT secretion, human small intestine; conditions: 50 μM HC030031
Excerpt: as §1

C=CCN=C=S [AITC, Allyl isothiocyanate]
Vagal activation (pERK+) in the absence of EECs (vagal sensory neurons [1]; EEC-ablated zebrafish): abrogated
Number of pERK+ vagal cells (vagal sensory neurons [1]; WT, microgavage, compared to PBS): increased
Gcamp6f fluorescence in a subset of vagal sensory neurons (vagal sensory neurons [2]): significantly increased
Zebrafish EEC activation (Gcamp6f fluorescence) (zebrafish EECs (Trpa1)): EEC activation

CC(C)c1ccc(NC(=O)Cn2cnc3c2c(=O)n(C)c(=O)n3C)cc1 [HC030031]
Effect on indole-induced 5-HT secretion, mouse small intestine (mouse duodenum): blocked
Effect on E. tarda's ability to induce EEC activation (zebrafish EECs; WT fish, HC030031 280 μM, 2 hours before and during E. tarda stimulation): significantly inhibited
Effect on indole-induced 5-HT secretion, human small intestine (human ileum): blocked

CCCCCCCCCCCC(=O)O [laurate]
Percentage of activated EECs (high red:green CaMPARI ratio) (zebrafish EECs; linoleate, oleate, laurate 1.66 mM, butyrate 2 mM, glucose 500 mM, vs water): significantly increased
